# Test results from patent publication US12396996B2, “Compounds, pharmaceutical compositions, and methods of their use in reversing cancer chemoresistance” (priority 2019, dated 2025).
# Test system: HMLE-SNAIL spheroids
# Assay: 3-D tumor spheroid assay (Sytox/DAPI staining)
# Assay type: cell-based, human
# Conditions: Sytox staining
# Excerpt: FIGS. 1F-1I show the results of a 3-D tumor spheroid assay formed by the chemotherapy-resistant breast cancer cell line, HMLE-SNAIL. […] Tumor spheroids are a model of real in vivo tumors, as they form a 3-D cell mass in which the hypoxic and often nutrient depleted microenvironment at the center of the tumor is enriched with mesenchymal, chemotherapy-resistant TIC cells. […] By staining spheroids with Sytox, which stains dead cells green, and DAPI, which stains the nuclei of all cells (living or dead), total fraction of dead cells is calculated. Also, the location of dead cells within the sphere is visualized with Sytox (green) staining. The results of FIGS. 1F-1I indicate that chaetocin a selective and potent killer of inner cells of the spheroids, enriched with mesenchymal, chemotherapy-resistant TIC cells, compared to other compounds tested. FIGS. 1J-1K show the results of a tumorsphere assay performed with TICs grown on serum-free, non-adherent culture conditions. […] The results of FIGS. 1J-1K indicate that chaetocin is effective in eliminating TICs in a dose dependent-manner.
# To determine whether chaetocin affects TIC death in a tumor-like environment, 3-D tumor spheroid assays were performed in the presence or absence of chaetocin. Tumor spheroids are a model of a real tumor, as they form a 3-D cell mass similar to tumors in vivo. The local microenvironment of a spheroid recapitulates many of the in vivo properties of tumor. Importantly, the hypoxic and often nutrient depleted microenvironment at the center of the tumor is favorable for converting epithelial, non-TIC, chemotherapy-sensitive cancer cells into mesenchymal, TIC-rich, chemotherapy-resistant cells. […] Pharmacological agents were added and cell viability was calculated by staining cells with Sytox, which stains dead cells green, and DAPI, which stains the nuclei of all cells (living or dead). to provide the total cell number. Using this method, the total fraction of dead cells was calculated and compared between different drug conditions. More importantly, the location of dead cells within the sphere is visualized with Sytox (green) staining. FIGS. 1G-1I show fluorescence images of tumor spheroids under control conditions (no treatment; FIG. 1G), under treatment with various experimental chemotherapeutic agents (Y-27632, LY-450139, and IWP-L6 (Wnt); FIG. 1H), and with chaetocin treatment (FIG. 1I). […] This family of kinases are thought to be important for survival of TIC cells. IWP-L6 is an inhibitor of Wnt pathway—a pathway important for TIC cell survival and formation. LY-450139 is a NOTCH pathway inhibitor. NOTCH is also important for TIC cell viability and survival. […]
structure (smiles),measurement,value
C[C@@H](N)[C@H]1CC[C@H](C(=O)Nc2ccncc2)CC1 [Y-27632],location of dead cells within spheroid,mostly result in death of cells on the exterior of the spheroid
CC(C)[C@H](O)C(=O)N[C@@H](C)C(=O)N[C@@H]1C(=O)N(C)CCc2ccccc21 [LY-450139],location of dead cells within spheroid,mostly result in death of cells on the exterior of the spheroid
O=C(CSc1nc2c(c(=O)n1-c1ccccc1)SCC2)Nc1ccc(-c2ccccc2)cn1 [IWP-L6],location of dead cells within spheroid,mostly result in death of cells on the exterior of the spheroid
